Source: ChEMBL document CHEMBL3046032, “Synthesis and biological evaluation of novel AM80 derivatives as antileukemic agents” (Med Chem Res, 2013)

Columns and labels:
Format in all cases: functional, cell-based
NB-4 = test: Cytotoxicity against Homo sapiens (human) NB4 cells assessed as growth inhibition after 48 hr by MTT assay; settings: NB-4, 48 h
K562 = test: Cytotoxicity against Homo sapiens (human) K562 cells assessed as growth inhibition after 48 hr by MTT assay; settings: K562, 48 h
HL-60 = test: Cytotoxicity against Homo sapiens (human) HL60 cells assessed as growth inhibition after 48 hr by MTT assay; settings: HL-60, 48 h

| Structure (SMILES) | IC50 (NB-4) [µM] | IC50 (K562) [µM] | IC50 (HL-60) [µM] |
| --- | --- | --- | --- |
| Cc1cc2c(cc1C(=O)c1ccc(C(=O)NCCNC(=O)c3ccc(C(=O)Nc4ccc5c(c4)C(C)(C)CCC5(C)C)cc3)cc1)C(C)(C)CCC2(C)C | 104 | 39.6 | 14.3 |
| CCCC(=O)OCCNC(=O)c1ccc(C(=O)Nc2ccc3c(c2)C(C)(C)CCC3(C)C)cc1 | 213 | 25.4 | 36.8 |
| C=C(c1ccc(C(=O)NCCOC(=O)c2ccc(C(=O)Nc3ccc4c(c3)C(C)(C)CCC4(C)C)cc2)cc1)c1cc2c(cc1C)C(C)(C)CCC2(C)C | > 1000 | > 1000 | 504 |
| C=C(c1ccc(C(=O)OCCCCOC(=O)c2ccc(C(=O)Nc3ccc4c(c3)C(C)(C)CCC4(C)C)cc2)cc1)c1cc2c(cc1C)C(C)(C)CCC2(C)C | 650 | > 1000 | 25.1 |
| Cc1cc2c(cc1C(=O)c1ccc(C(=O)NCCCCCCNC(=O)c3ccc(C(=O)Nc4ccc5c(c4)C(C)(C)CCC5(C)C)cc3)cc1)C(C)(C)CCC2(C)C | > 1000 | 95.4 | 95.4 |
| CCCC(=O)OCCCCOC(=O)c1ccc(C(=O)Nc2ccc3c(c2)C(C)(C)CCC3(C)C)cc1 | 23.2 | 92.6 | 7.32 |
| CCCC(=O)NCCNC(=O)c1ccc(C(=O)Nc2ccc3c(c2)C(C)(C)CCC3(C)C)cc1 | 3.26 | 7.98 | 5.61 |
| CCCC(CCC)C(=O)NCCNC(=O)c1ccc(C(=O)Nc2ccc3c(c2)C(C)(C)CCC3(C)C)cc1 | 5.69 | 83.7 | 12.4 |
| Cc1cc2c(cc1C(=O)c1ccc(C(=O)OCCCCOC(=O)c3ccc(C(=O)Nc4ccc5c(c4)C(C)(C)CCC5(C)C)cc3)cc1)C(C)(C)CCC2(C)C | 147 | 84 | 24.7 |
| CCCC(CCC)C(=O)OCCOC(=O)c1ccc(C(=O)Nc2ccc3c(c2)C(C)(C)CCC3(C)C)cc1 | > 1000 | 664 | 256 |
| CCCC(=O)OCCCOC(=O)c1ccc(C(=O)Nc2ccc3c(c2)C(C)(C)CCC3(C)C)cc1 | 5.75 | 4.57 | 2.99 |
| CCCC(CCC)C(=O)OCCCOC(=O)c1ccc(C(=O)Nc2ccc3c(c2)C(C)(C)CCC3(C)C)cc1 | > 1000 | > 1000 | 835 |
| CCCC(CCC)C(=O)OCCNC(=O)c1ccc(C(=O)Nc2ccc3c(c2)C(C)(C)CCC3(C)C)cc1 | > 1000 | > 1000 | > 1000 |
| C=C(c1ccc(C(=O)OCCOC(=O)c2ccc(C(=O)Nc3ccc4c(c3)C(C)(C)CCC4(C)C)cc2)cc1)c1cc2c(cc1C)C(C)(C)CCC2(C)C | > 1000 | 504 | 30.7 |
| Cc1cc2c(cc1C(=O)c1ccc(C(=O)OCCCOC(=O)c3ccc(C(=O)Nc4ccc5c(c4)C(C)(C)CCC5(C)C)cc3)cc1)C(C)(C)CCC2(C)C | 112 | 49.1 | 14.9 |
| CCCC(CCC)C(=O)OCCCCOC(=O)c1ccc(C(=O)Nc2ccc3c(c2)C(C)(C)CCC3(C)C)cc1 | > 1000 | > 1000 | 914 |
| C=C(c1ccc(C(=O)NCCCCCCNC(=O)c2ccc(C(=O)Nc3ccc4c(c3)C(C)(C)CCC4(C)C)cc2)cc1)c1cc2c(cc1C)C(C)(C)CCC2(C)C | > 1000 | 294 | 70.7 |
| C=C(c1ccc(C(=O)NCCNC(=O)c2ccc(C(=O)Nc3ccc4c(c3)C(C)(C)CCC4(C)C)cc2)cc1)c1cc2c(cc1C)C(C)(C)CCC2(C)C | 569 | 73.5 | 14.8 |
| Cc1cc2c(cc1C(=O)c1ccc(C(=O)OCCOC(=O)c3ccc(C(=O)Nc4ccc5c(c4)C(C)(C)CCC5(C)C)cc3)cc1)C(C)(C)CCC2(C)C | 67 | 39.9 | 6.83 |
| CCCC(=O)OCCOC(=O)c1ccc(C(=O)Nc2ccc3c(c2)C(C)(C)CCC3(C)C)cc1 | 11 | 18.6 | 6.29 |
| C=C(c1ccc(C(=O)OCCCOC(=O)c2ccc(C(=O)Nc3ccc4c(c3)C(C)(C)CCC4(C)C)cc2)cc1)c1cc2c(cc1C)C(C)(C)CCC2(C)C | 212 | > 1000 | 19.2 |
| Cc1cc2c(cc1C(=O)c1ccc(C(=O)NCCOC(=O)c3ccc(C(=O)Nc4ccc5c(c4)C(C)(C)CCC5(C)C)cc3)cc1)C(C)(C)CCC2(C)C | 72.4 | 247 | 37.5 |
